± gives the expanded uncertainty stated by the source.
Key:
[1] = Molar enthalpy of transition or fusion; settings: Crystal; DSC
[2] = Crystal

CCCCCCCCCCCC(=O)O [dodecanoic acid]
Molar enthalpy of transition or fusion [1]: 43.4 ± 8.7 kJ/mol
thermal conductivity ([2]; 296.15 K, 101.33 kPa, Hot disk method): 0.394 ± 0.081 W/m/K
Triple point temperature ([2]; DSC): 320.35 ± 4.1 K

Reference: the NIST ThermoML archive (doi:10.1016/j.tca.2018.04.002)
